From ChEMBL document CHEMBL1201862, “PubChem BioAssay data set” (2004)
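Briefly, cells in 96-well plates were exposed to five compound concentrations for 48 h, and endpoints were estimated by linear interpolation. The concentration for 50% growth inhibition is given as GI50.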 Active and inactive are the calls of the source. Cut-off read from the data, not from the text of the source: active = GI50 up to about 1.1 µM and inactive = higher.

Legend:
Test in all cases: DTP human tumour cell line panel, 48 h
HT-29 = tested on: HT-29
UO-31 = tested on: UO-31
CCRF-CEM = tested on: CCRF-CEM
HCT-116 = tested on: HCT-116
M14 = tested on: M14
MOLT-4 = tested on: MOLT-4
SNB-75 = tested on: SNB-75
HL-60 = tested on: HL-60
SK-MEL-5 = tested on: SK-MEL-5
OVCAR-8 = tested on: OVCAR-8
LOX IMVI = tested on: LOX IMVI
KM12 = tested on: KM12
SF-295 = tested on: SF-295
NCI-H226 = tested on: NCI-H226
U-251 = tested on: U-251
SR = tested on: SR
EKVX = tested on: EKVX
NCI-H23 = tested on: NCI-H23
RXF 393 = tested on: RXF 393

Measured: GI50

CC12O[C@H](c3ccccc3)[C@H](c3ccccc3)N1C(=O)C1(C(=O)OCc3ccccc3)CC12 (some centres not stated)
inactive: HT-29 76 µM | UO-31 41.2 µM | CCRF-CEM 28.6 µM | HCT-116 98.2 µM | M14 64.7 µM | MOLT-4 18.2 µM | SNB-75 > 100 µM | HL-60 32.4 µM | SK-MEL-5 88.7 µM | OVCAR-8 92.3 µM | LOX IMVI > 100 µM | KM12 91 µM | SF-295 > 100 µM | NCI-H226 36 µM

COc1ccc(N[S+]([O-])c2c(C)cc(C)cc2C)cc1 (configuration not stated)
inactive: U-251 50 µM | HT-29 46.1 µM | UO-31 18.2 µM | CCRF-CEM > 100 µM | HCT-116 14.4 µM | M14 77.8 µM | MOLT-4 40.1 µM | HL-60 33 µM | SK-MEL-5 23.8 µM | OVCAR-8 72.1 µM | SR 35.7 µM | LOX IMVI 57 µM | KM12 22.5 µM | SF-295 > 100 µM | NCI-H226 36.2 µM | EKVX 43.8 µM | NCI-H23 > 100 µM

N/N=C1\c2ccccc2C2/C(=N\N)c3ccccc3C12 (configuration not stated)
inactive: U-251 > 100 µM | HT-29 > 100 µM | UO-31 > 10 µM | CCRF-CEM > 100 µM | M14 > 100 µM | MOLT-4 > 100 µM | SNB-75 56.1 µM | HL-60 > 100 µM | SK-MEL-5 > 100 µM | OVCAR-8 > 100 µM | LOX IMVI > 100 µM | KM12 > 100 µM | SF-295 > 100 µM | RXF 393 > 100 µM | EKVX > 100 µM | NCI-H23 > 100 µM

Cc1ccc(S(=O)(=O)OCC23CCC(C2)C2CC23)cc1 (configuration not stated)
inactive: U-251 > 100 µM | HT-29 > 100 µM | UO-31 > 100 µM | CCRF-CEM > 100 µM | HCT-116 > 100 µM | M14 > 100 µM | MOLT-4 > 100 µM | HL-60 31.6 µM | SK-MEL-5 > 100 µM | OVCAR-8 > 100 µM | SR > 100 µM | LOX IMVI > 100 µM | SF-295 > 100 µM | NCI-H226 > 100 µM | NCI-H23 > 100 µM

COc1cc2nc(NCCCCCNC(=O)c3ccco3)nc(N)c2cc1OC
inactive: U-251 20.5 µM | HT-29 33.9 µM | UO-31 > 100 µM | CCRF-CEM 28.5 µM | M14 18.5 µM | MOLT-4 24.8 µM | SNB-75 22.6 µM | HL-60 21.4 µM | SK-MEL-5 19.2 µM | OVCAR-8 33.7 µM | KM12 24 µM | SF-295 37.2 µM | RXF 393 27.6 µM | NCI-H226 32.7 µM | EKVX > 100 µM | NCI-H23 87.7 µM

O=[N+]([O-])c1ccccc1/C=N/C12CC3CC(CC(C3)C1)C2
inactive: U-251 > 100 µM | HT-29 34.3 µM | UO-31 > 100 µM | CCRF-CEM 30.9 µM | HCT-116 39.3 µM | M14 56.1 µM | MOLT-4 34 µM | SNB-75 65 µM | HL-60 21.4 µM | SK-MEL-5 61.4 µM | OVCAR-8 75 µM | LOX IMVI 47.4 µM | KM12 37.3 µM | SF-295 > 100 µM | RXF 393 > 100 µM | NCI-H226 > 100 µM | EKVX > 100 µM | NCI-H23 > 100 µM

CCOc1ccccc1/N=N/c1ccc2oc(=O)c(C(=O)Nc3cccc(C)c3)cc2c1
inactive: U-251 25.6 µM | HT-29 36.2 µM | UO-31 16.6 µM | CCRF-CEM 18.7 µM | HCT-116 20.2 µM | M14 18.7 µM | MOLT-4 19.9 µM | SNB-75 37 µM | HL-60 10.2 µM | SK-MEL-5 15.1 µM | OVCAR-8 24.7 µM | LOX IMVI 14.7 µM | KM12 30 µM | SF-295 29.6 µM | EKVX 25.7 µM | NCI-H23 21.4 µM
